target: T1, human GPR43 (Homo sapiens, UniProt O15552); assay: Ca-Flux Functional Assay: Determination of Agonist/Positive Allosteric Modulator (PAM) Activity; type: cell-based; conditions: CHO-K1 Gα16 cells stably expressing human GPR43; compound added in the presence of EC20 sodium acetate; intracellular Ca2+ by FLIPR; agonist/PAM activity not distinguished
T1 construct: expressed in transfected cells
T1 sequence (O15552 1-330): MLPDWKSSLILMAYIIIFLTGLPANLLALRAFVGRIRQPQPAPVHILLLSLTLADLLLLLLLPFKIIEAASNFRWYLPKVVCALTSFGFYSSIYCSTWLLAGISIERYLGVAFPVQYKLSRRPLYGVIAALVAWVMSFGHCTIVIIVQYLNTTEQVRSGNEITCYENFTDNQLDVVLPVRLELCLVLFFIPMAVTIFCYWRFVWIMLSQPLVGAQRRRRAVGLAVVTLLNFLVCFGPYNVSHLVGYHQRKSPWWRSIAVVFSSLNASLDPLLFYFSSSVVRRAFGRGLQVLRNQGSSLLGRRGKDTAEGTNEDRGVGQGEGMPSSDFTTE
How it was run: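 FLIPR calcium read in CHO-K1 Gα16 cells stably expressing human GPR43, loaded with Calcium 5 dye in HBSS/HEPES/probenecid/BSA for 1 h at 37 °C. Compounds were tested in 10-point half-log series from 10 μM, co-added with sodium acetate at its EC20. EC50 taken from duplicate-well curves, capturing agonist or PAM activity without distinction.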

| Structure (SMILES) | EC50 [nM] |
| --- | --- |
| Nc1c(S(=O)(=O)N2Cc3ccccc3C2)c2nccnc2n1C1CCCCC1 [Example 97, 5-cyclohexyl-7-(2,3-dihydro-1H-isoindole-2-sulfonyl)-5H-pyrrolo[2,3-b]pyrazin-6-amine] | 173 |
| CC1CCN(S(=O)(=O)c2c(N)n(C3CCCCC3)c3nccnc23)C1 (stereo not shown) [Example 67, 5-cyclohexyl-7-((3-methylpyrrolidin-1-yl)sulfonyl)-5H-pyrrolo[2,3-b]pyrazin-6-amine] | 830 |
| Nc1c(S(=O)(=O)c2ccccc2)c2ncncc2n1C1CCCCC1 [Example 19, 7-(benzenesulfonyl)-5-cyclohexyl-5H-pyrrolo[3,2-d]pyrimidin-6-amine] | 1780 |
| Nc1c(S(=O)(=O)c2ccccc2F)c2nccnc2n1C1CCCCC1 [Example 111, 5-cyclohexyl-7-[(2-fluorobenzene)sulfonyl]-5H-pyrrolo[2,3-b]pyrazin-6-amine] | 209 |
| CCOc1ncnc2c(S(=O)(=O)c3ccccc3)c(N)n(C3CCC(F)(F)CC3)c12 [Example 29, 7-(benzenesulfonyl)-5-(4,4-difluorocyclohexyl)-4-ethoxy-5H-pyrrolo[3,2-d]pyrimidin-6-amine] | 31 |
| Nc1c(S(=O)(=O)NCc2ccccc2)c2nccnc2n1C1CCCCC1 [Example 70, 6-amino-N-benzyl-5-cyclohexyl-5H-pyrrolo[2,3-b]pyrazine-7-sulfonamide] | 3280 |
| Nc1c(S(=O)(=O)N2CCc3ccccc3C2)c2nccnc2n1C1CCCCC1 [Example 94, 5-cyclohexyl-7-(1,2,3,4-tetrahydroisoquinoline-2-sulfonyl)-5H-pyrrolo[2,3-b]pyrazin-6-amine] | 308 |
| CC1CCCCC1n1c(N)c(S(=O)(=O)c2ccccc2)c2nccnc21 (mixture of isomers) [Example 44, 5-(2-methylcyclohexyl)-7-(phenylsulfonyl)-5H-pyrrolo[2,3-b]pyrazin-6-amine] | 1080 |
| Nc1c(S(=O)(=O)c2cccc(F)c2)c2nccnc2n1C1CCCCC1 [Example 110, 5-cyclohexyl-7-[(3-fluorobenzene)sulfonyl]-5H-pyrrolo[2,3-b]pyrazin-6-amine] | 343 |
| Nc1c(S(=O)(=O)N2CCC(c3ccccc3)C2)c2nccnc2n1C1CCCCC1 (stereo not shown) [Example 86, 5-cyclohexyl-7-(3-phenylpyrrolidine-1-sulfonyl)-5H-pyrrolo[2,3-b]pyrazin-6-amine] | 1720 |
| Nc1c(S(=O)(=O)N2CC(N3CCCCC3)C2)c2nccnc2n1C1CCCCC1 [Example 100, 5-cyclohexyl-7-[3-(piperidin-1-yl)azetidine-1-sulfonyl]-5H-pyrrolo[2,3-b]pyrazin-6-amine] | 3930 |

Further compounds by falling EC50, results first:

| EC50 [nM] | Structure (SMILES) |
| --- | --- |
| 6990 | Nc1c(S(=O)(=O)c2ccccc2)c2nccnc2n1C1CCC1 [Example 43, 5-cyclobutyl-7-(phenylsulfonyl)-5H-pyrrolo[2,3-b]pyrazin-6-amine] |
| 6490 | Nc1c(S(=O)(=O)c2ccccc2)c2nccnc2n1C1CCCCC1O (stereo not shown) [Example 47, 2-(6-amino-7-(phenylsulfonyl)-5H-pyrrolo[2,3-b]pyrazin-5-yl)cyclohexanol] |
| 6180 | COCCNS(=O)(=O)c1c(N)n(C2CCCCC2)c2nccnc12 [Example 90, 6-amino-5-cyclohexyl-N-(2-methoxyethyl)-5H-pyrrolo[2,3-b]pyrazine-7-sulfonamide] |
| 4560 | COc1ccc(S(=O)(=O)c2c(N)n(C3CCCCC3)c3nccnc23)cn1 [Example 115, 5-cyclohexyl-7-(6-methoxypyridine-3-sulfonyl)-5H-pyrrolo[2,3-b]pyrazin-6-amine] |
| 337 | Nc1c(S(=O)(=O)N2CCSCC2)c2nccnc2n1C1CCCCC1 [Example 78, 5-cyclohexyl-7-(thiomorpholine-4-sulfonyl)-5H-pyrrolo[2,3-b]pyrazin-6-amine] |
| 218 | Cc1ccc(S(=O)(=O)c2c(N)n(C3CCCCCC3)c3nccnc23)cc1 [Example 2, 5-cycloheptyl-7-[(4-methylbenzene)sulfonyl]-5H-pyrrolo[2,3-b]pyrazin-6-amine] |
| 172 | CC(C)Oc1ccc(S(=O)(=O)c2c(N)n(C3CCCCC3)c3nccnc23)cc1 [Example 7, 5-cyclohexyl-7-{[4-(propan-2-yloxy)benzene]sulfonyl}-5H-pyrrolo[2,3-b]pyrazin-6-amine] |
| 129 | COc1ccc(S(=O)(=O)c2c(N)n(C3CCC(F)(F)CC3)c3nccnc23)cc1 [Example 13, 5-(4,4-difluorocyclohexyl)-7-[(4-methoxybenzene)sulfonyl]-5H-pyrrolo[2,3-b]pyrazin-6-amine] |

From US20170369492A1 (Takeda Pharmaceutical Company Limited, priority 2014, published 2017)
